The numbers were not newly measured in patent US20240400534A1, “CHEMICAL TOOLS FOR DRUG TARGET IDENTIFICATION AND CHARACTERIZATION” (Dana-Farber Cancer Institute, Inc., priority 2021, published 2024), which cites them from elsewhere.

Broadly, the IC50 is the concentration needed to halve the response being measured.

The data set concerns the target USP7 (Homo sapiens, UniProt Q93009). As to conditions: selective covalent inhibitor of the DUB USP7.

Sequence of USP7 (Q93009 whole entry): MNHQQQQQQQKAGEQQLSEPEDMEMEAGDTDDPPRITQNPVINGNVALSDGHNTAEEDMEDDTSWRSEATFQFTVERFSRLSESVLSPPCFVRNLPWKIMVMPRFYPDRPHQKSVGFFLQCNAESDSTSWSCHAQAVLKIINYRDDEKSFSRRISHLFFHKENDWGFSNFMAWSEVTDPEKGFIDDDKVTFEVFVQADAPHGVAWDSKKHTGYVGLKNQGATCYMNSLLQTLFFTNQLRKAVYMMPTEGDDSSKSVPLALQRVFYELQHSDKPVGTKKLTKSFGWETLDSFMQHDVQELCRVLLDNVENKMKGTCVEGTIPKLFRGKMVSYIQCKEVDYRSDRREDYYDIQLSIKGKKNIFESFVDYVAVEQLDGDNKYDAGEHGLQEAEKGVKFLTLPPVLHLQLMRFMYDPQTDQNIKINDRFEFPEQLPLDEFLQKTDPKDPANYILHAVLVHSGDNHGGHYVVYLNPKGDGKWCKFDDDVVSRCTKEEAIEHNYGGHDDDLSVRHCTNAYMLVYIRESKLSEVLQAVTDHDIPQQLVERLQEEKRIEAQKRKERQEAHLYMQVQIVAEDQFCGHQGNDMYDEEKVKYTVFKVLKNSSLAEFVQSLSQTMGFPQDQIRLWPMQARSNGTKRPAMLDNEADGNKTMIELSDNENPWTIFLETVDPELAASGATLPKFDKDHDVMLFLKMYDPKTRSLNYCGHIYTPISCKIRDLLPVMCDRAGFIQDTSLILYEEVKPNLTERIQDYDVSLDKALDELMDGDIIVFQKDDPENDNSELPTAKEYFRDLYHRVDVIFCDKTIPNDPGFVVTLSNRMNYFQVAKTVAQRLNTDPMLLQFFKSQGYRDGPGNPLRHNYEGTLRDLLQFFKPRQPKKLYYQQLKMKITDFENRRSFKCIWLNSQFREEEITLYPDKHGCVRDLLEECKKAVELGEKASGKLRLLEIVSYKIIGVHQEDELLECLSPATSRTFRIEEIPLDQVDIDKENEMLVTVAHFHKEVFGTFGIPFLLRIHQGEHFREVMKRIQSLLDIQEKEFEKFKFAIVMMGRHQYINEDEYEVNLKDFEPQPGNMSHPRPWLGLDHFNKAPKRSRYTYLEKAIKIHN

In the case of `CN1CCN(CCC(=O)Nc2ccc3c(=O)n(CC4(O)CCN(C(=O)[C@@H](CCCNC(=O)c5ccc6c(Cl)c7c(nc6c5)CCCC7)Cc5ccccc5)CC4)cnc3c2)CC1` [XL177A], the IC50 was 0.3 nM.
